Experimental data: publication PMC9644403, “L-type Amino Acid Transporter 1 Utilizing Ferulic Acid Derivatives Show Increased Drug Delivery in the Mouse Pancreas Along with Decreased Lipid Peroxidation and Prostaglandin Production” (Molecular Pharmaceutics, 2022)
Like-named read-outs stand apart in the source and are kept apart here. Marks after values point to notes of the source that are not given here.

Assays:
[1] = RBC lysis assay (hemolysis); assay type: cell-based; conditions: 2% erythrocyte (RBC) suspension, human RBCs, 37 °C, Triton X = 100%, control 2.08 ± 0.15%, read-out: hemolysis rate
Method: To further evaluate the safety of derivatives in human blood, the effects of FA, D1, and D2 on hemolysis were studied using a previously described protocol.[31] Shortly, freshly collected erythrocytes were washed three times with 1 mL of 0.9% saline (Sigma-Aldrich, Germany). Subsequently, 2% RBC suspension was prepared by diluting 1 mL of erythrocytes in 50 mL of 0.9% saline. FA, D1, and D2 (1–100 μM) were incubated with the RBC suspension at 37 °C for 1 h. Additionally, negative controls containing 0.9% NaCl and positive controls with Triton X-100 (Polish Chemical Reagents, Poland) were studied. After incubation, the samples were centrifuged at 3 000 rpm for 10 min, and the absorbance values were measured from the collected supernatants at the wavelength of 550 nm. Samples with Triton X (positive control) represented 100% hemolysis. Results of the studies are presented as a percentage of released hemoglobin. The counted CV was 8.1% (n = 5). Additionally, the influence of FA and its derivatives (25–100 μM) on RBC morphology was studied using a phase contrast Opta-Tech inverted microscope. The morphology was analyzed using a dedicated OptaView 7 software (Opta-Tech, Warsaw, Poland).

[2] = mouse plasma, equilibrium dialysis, 4 h incubation, n = 2; cited from earlier work
[3] = Non-specific binding in S9 fractions of mouse liver, kidney and pancreas homogenates, rapid equilibrium dialysis; assay type: in vitro ADME; conditions: for fraction unbound at 4 h, 50 μM: pH 7.4, 37 °C, mean ± SD (n = 3); for unbound (free) portion, range over liver, kidney and pancreas: range over the studied mouse tissues
Method: The unbound fractions of FA, D1, and D2 were determined in the S9 subcellular fractions of the mouse liver, kidneys, and pancreas using rapid equilibrium dialysis (RED) plates (Thermo Fisher Scientific, Inc., Waltham, MA, USA). Briefly, the studied compounds were spiked at a 50 μM concentration into 100 μL of mouse homogenate S9 subcellular fraction and transferred to the reaction chamber. Homogenate dilutions were 1:4 (w/v) for the liver and kidney, and 1:20 (w/v) for the pancreas. A total of 350 μL of TBS (pH 7.4) buffer was added to the buffer chamber of the RED plate. The dialysis plate was incubated at 37 °C with shaking for 4 h. Samples of 50 μL were collected from both the reaction and buffer chambers, and equal amounts of buffer and S9 fraction were added to the collected samples, respectively, to yield identical sample matrices. The proteins were precipitated by diluting samples with 100 μL of ice-cold acetonitrile. Samples were centrifuged at 12 000 × g for 10 min, and the supernatants were collected for HPLC analysis.
The unbound fraction (fu,tissue) of the FA and its derivatives was calculated using eq 1 [drawing 1] 1 where D is the dilution factor of studied tissue homogenate, and fu,homogenate is the distribution ratio of the studied compound measured in the reaction and buffer chambers within the equilibrium dialysis assay.[29]

HUVECs = assay: HUVEC morphology, phase-contrast microscopy; assay type: cell-based, human; conditions: 24 h incubation
Method: As a third in vitro toxicity study in the human blood circulation system, the effects of FA, D1, and D2 on the viability of human umbilical vein endothelial cells (HUVECs; RRID CVCL_2959; Lonza, Italy; Cat. no. CC-2517) were determined using the WST-1 assay (Takara, Takara Bio Europe, Europe, Saint-Germain-en-Laye, France), according to the previously published protocol.[32] Briefly, the cells were cultured according to the manufacturer’s guidelines with the following ingredients: EGM-2-medium + bullet kit (Lonza, Clonetics, Italy), accutase (Sigma-Aldrich, Germany), and HEPES-buffered saline solution (Lonza, Basel, Switzerland). For the assay, the cells were seeded at the density of 7 500 HUVECs per well on 96-well plates and cultured for 24 h to obtain 70% confluency. Subsequently, the cells were treated with studied compounds in multiplicate (n = 6–8) at the concentration of 0.1–100 μM in the growth medium for 24 h (37 °C, 5% CO2). Cells with untreated growth medium represented 100% viability, whereas cells treated with medium containing 0.5% (v/v) methanol served as a negative control for drug solvent. After treating cells for 24 h, medium was removed, the cells were washed with the culture medium (100 μl/well), and 100 μL of WST-1 reagent dissolved in culture medium was added into each well. The plates were incubated at 37 °C with 5% CO2 for 2 h, after which absorbance values were measured at the 450 nm wavelength using a microplate reader (iMARK, Bio-Rad). Additionally, the effects of treatments on HUVEC morphology were examined microscopically using a phase-contrast Opta-Tech inverted microscope equipped with OptaView 7 software (Opta-Tech, Warsaw, Poland) for image analysis.

[4] = S9 subcellular fraction of kidney homogenate, mouse kidney S9, 50 μM, read-out: fu, kidney (%)
[5] = S9 subcellular fraction of liver homogenate, mouse liver S9, 50 μM, read-out: fu, liver (%)
[6] = S9 subcellular fraction of pancreas homogenate, mouse pancreas S9, 50 μM, read-out: fu, pancreas (%)

| Compound | hemolysis at 1 h, 100 µM [1] | fu, plasma (%) [2] | fraction unbound at 4 h, 50 μM [3, 4] | fraction unbound at 4 h, 50 μM [3, 5] | fraction unbound at 4 h, 50 μM [3, 6] | unbound (free) portion, range over liver, kidney and pancreas [3] | HUVEC morphology at 100 μM (HUVECs) | HUVEC morphology at 25–50 μM (HUVECs) | HUVEC morphology at 50 μM (HUVECs) |
| --- | --- | --- | --- | --- | --- | --- | --- | --- | --- |
| COc1cc(C=CC(=O)NCc2cccc(CC(N)C(=O)O)c2)ccc1O (stereo not drawn) [derivative 1] | 3.58 ± 0.69% | 19.66–30.62 ^b % | 0.469 ± 0.0593 | 0.425 ± 0.0544 | 0.28 ± 0.0147 | 28.02–46.85% | slightly more rounded, bright dead cells were observed | did not cause significant changes in HUVEC morphology |  |
| COc1cc(C=CC(=O)O)ccc1O [ferulic acid, 4-hydroxy-3-methoxycinnamic acid] | 2.38 ± 1.84% | 9.94–11.51 ^b % | 0.991 ± 0.105 | 0.849 ± 0.145 | 0.993 ± 0.0196 | 84.94–99.30% | more elongated cells were seen | did not change cell morphology |  |
| COc1cc(/C=C/C(=O)Nc2cccc(C[C@H](N)C(=O)O)c2)ccc1O [derivative 2] | 1.97 ± 1.25% | 8.37–9.01 ^b % | 0.305 ± 0.0063 | 0.236 ± 0.0109 | 0.15 ± 0.0206 | 15.01–30.52% | reduced the number of viable cells and cell density as well as caused an irregular shape with cytoplasm leakage |  | first brighter cells appearing |
